Experimental data taken from patent US20130029981A1, “COMPOUNDS, COMPOSITIONS, AND METHODS FOR CONTROLLING BIOFILMS” (Katholieke Universiteit Leuven, priority 2009, published 2013).
Like-named read-outs stand apart in the source and are kept apart here.

Columns and labels:
[1] = test system: Pseudomonas aeruginosa PA14; test: Static peg assay for prevention of biofilm formation (Calgary device, crystal violet); format: cell-based; conditions: read-out: P. aeruginosa IC50 (biofilm formation)
Protocol: (§1) Evaluation of the biofilm inhibitory activity of some substituted 2-amino-1H-imidazoles of the invention was carried out by growing up biofilms of S. Typhimurium ATCC14028 or SL1344 or Pseudomonas aeruginosa PA14 in the presence of different concentrations (1/2 dilution series) of biofilm inhibitors, by using the Calgary biofilm device. After an incubation period of 24 hours at 25° C. or 37° C. or 48 hours at 16° C. the biofilms were visualized by crystal violet staining. In the next step the stain was extracted from the biofilm with 30% acetic acid. The absorbance of the resolubilized stain at 570 nm is a measure of the amount of biofilm formed.
The device used for Pseudomonas aeruginosa biofilm formation is the same platform carrying polystyrene pegs as described above for Salmonella Typhimurium.
Two-fold serial dilutions of the compounds in 100 μl liquid broth per well were prepared in the microtiter plate. Subsequently, an overnight culture of P. aeruginosa PA14 (grown up in TSB medium) was diluted 1:100 into liquid broth and 100 μl was added to each well of the microtiter plates, resulting in a total amount of 200 μl medium per well. The pegged lid was placed on the microtiter plate and the plate was incubated for 24 hours at 25° C., 30° C. or 37° C. without shaking. During this incubation period biofilms were formed on the surface of the pegs. The liquid broth used for the tests at 25° C. was TSB 1/20. The tests at 37° C. were performed in CFA and/or LBNS broth. During incubation at 30° C. and 37° C. the plates were placed in a humidity controlled container to prevent evaporation of the growth medium. Quantification of biofilm formation was performed similarly as described previously for the S. Typhimurium biofilm assays.
as §1, with “imidazo[1,2-a]pyrimidinium bromide salts” for “2-amino-1H-imidazoles”
as §1, with “substituted imidazo[1,2-a]-pyrimidinium bromide and perchlorate salts produced according to examples 3 and 5” for “substituted 2-amino-1H-imidazoles of the invention”, “C.” for “C. or 37° C. or 48 hours at 16° C.”, “nm was taken as” for “nm is”

[2] = test system: S. Typhimurium ATCC14028; test: as above; format: cell-based, Salmonella Typhimurium
Outline: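 Calgary 96-peg device, ca. 10^6 cells of ATCC14028 per well in TSB 1/20 for 24 h at 25° C (or 48 h at 16° C, medium and compound renewed at 24 h), or in CFA broth for 24 h at 37° C, static, with two-fold compound dilutions. Crystal violet stain, acetic acid extraction, OD570. IC50 from 2–3 independent experiments.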

[3] = S. Typhimurium ATCC 14028, 25° C., read-out: S. Typhimurium IC50 (biofilm formation)
[4] = Table 21, P. aeruginosa PA14, 25° C.
[5] = Table 21, S. Typhimurium ATCC14028, 25° C., read-out: S. Typhimurium IC50 (biofilm formation)
[6] = 25° C., Table 22, read-out: S. Typhimurium IC50 (biofilm formation)

CNc1ncc(-c2ccc(F)cc2)[nH]1 [Compound 97]
IC50 ([1]; P. aeruginosa PA14, 25° C.): 25.2 µM
IC50 [2, 3]: 102 µM

CCCCNc1ncc(-c2ccc(F)cc2)[nH]1 [Compound 98]
IC50 ([1]; P. aeruginosa PA14, 25° C.): 10.8 µM
IC50 [2, 3]: 15.5 µM

CCCCCCNc1ncc(-c2ccc(F)cc2)[nH]1 [Compound 99]
IC50 ([1]; P. aeruginosa PA14, 25° C.): ~12.5 µM
IC50 [2, 3]: > 400 µM

CCCCCCCCNc1ncc(-c2ccc(F)cc2)[nH]1 [Compound 100]
IC50 ([1]; P. aeruginosa PA14, 25° C.): ~3.1 µM
IC50 [2, 3]: > 400 µM

Nc1ncc(-c2ccc(Br)cc2)[nH]1 [Compound 101]
IC50 ([1]; P. aeruginosa PA14, 25° C.): 3.2 µM
IC50 [2, 3]: 47.9 µM

CCCCNc1ncc(-c2ccc(Br)cc2)[nH]1 [Compound 102]
IC50 ([1]; P. aeruginosa PA14, 25° C.): 9.8 µM
IC50 [2, 3]: 7.1 µM

CC(C)CNc1ncc(-c2ccc(Br)cc2)[nH]1 [Compound 103]
IC50 ([1]; P. aeruginosa PA14, 25° C.): 1.2 µM
IC50 [2, 3]: 2.9 µM

CCCCCNc1ncc(-c2ccc(Br)cc2)[nH]1 [Compound 104]
IC50 ([1]; P. aeruginosa PA14, 25° C.): 10.2 µM
IC50 [2, 3]: 3.1 µM

CCCCCCCCNc1ncc(-c2ccc(Br)cc2)[nH]1 [Compound 105]
IC50 ([1]; P. aeruginosa PA14, 25° C.): > 800 µM
IC50 [2, 3]: 1.9 µM

COc1ccc(-c2cnc(N)[nH]2)cc1 [Compound 106]
IC50 ([1]; P. aeruginosa PA14, 25° C.): 186 µM
IC50 [2, 3]: 120 µM

CCCCNc1ncc(-c2ccc(OC)cc2)[nH]1 [Compound 107]
IC50 ([1]; P. aeruginosa PA14, 25° C.): 46.3 µM
IC50 [2, 3]: 52.6 µM

CCCCCCCCNc1ncc(-c2ccc(OC)cc2)[nH]1 [Compound 108]
IC50 ([1]; P. aeruginosa PA14, 25° C.): > 800 µM
IC50 [2, 3]: ~400 µM

CCCNc1ncc(-c2ccc(Cl)c(Cl)c2)[nH]1 [Compound 109]
IC50 ([1]; P. aeruginosa PA14, 25° C.): 27.7 µM
IC50 [2, 3]: 10.9 µM

CCCCCCCCNc1ncc(-c2ccc(Cl)c(Cl)c2)[nH]1 [Compound 111]
IC50 ([1]; P. aeruginosa PA14, 25° C.): > 800 µM
IC50 [2, 3]: 118 µM

CS(=O)(=O)c1ccc(-c2cnc(N)[nH]2)cc1 [Compound 115]
IC50 ([1]; P. aeruginosa PA14, 25° C.): > 800 µM
IC50 [2, 3]: > 800 µM

CCCCCCCCNc1ncc(-c2ccc(S(C)(=O)=O)cc2)[nH]1 [Compound 116]
IC50 ([1]; P. aeruginosa PA14, 25° C.): ~3.1 µM
IC50 [2, 3]: 41.8 µM

Clc1ccc(-c2cnc(NC3CCCC3)[nH]2)cc1 [Compound 118]
IC50 [1, 4]: 13.5 µM
IC50 [2, 5]: 4.4 µM

O=[N+]([O-])c1ccc(-c2cnc(NC3CCCC3)[nH]2)cc1 [Compound 119]
IC50 [1, 4]: 20.2 µM
IC50 [2, 5]: 11.8 µM

Brc1ccc(-c2cnc(NC3CCCC3)[nH]2)cc1 [Compound 120]
IC50 [1, 4]: 7.2 µM
IC50 [2, 5]: 12.1 µM

Clc1ccc(-c2cnc(NC3CCCC3)[nH]2)cc1Cl [Compound 121]
IC50 [1, 4]: 7.9 µM
IC50 [2, 5]: 5.7 µM

Clc1ccc(-c2cnc(NC3CCCCC3)[nH]2)cc1 [Compound 122]
IC50 [1, 4]: ~25 µM
IC50 [2, 5]: > 800 µM

O=[N+]([O-])c1ccc(-c2cnc(NC3CCCCC3)[nH]2)cc1 [Compound 123]
IC50 [1, 4]: ~25 µM
IC50 [2, 5]: 36.7 µM

O=[N+]([O-])c1cccc(-c2cnc(NC3CCCCC3)[nH]2)c1 [Compound 124]
IC50 [1, 4]: 4.4 µM
IC50 [2, 5]: 630 µM

COc1ccc(-c2cnc(NC3CCCCC3)[nH]2)cc1 [Compound 125]
IC50 [1, 4]: 54.8 µM
IC50 [2, 5]: ~378 µM

CSc1ccc(-c2cnc(NC3CCCCC3)[nH]2)cc1 [Compound 126]
IC50 [1, 4]: 15.8 µM
IC50 [2, 5]: 191 µM

COc1ccc(CNc2ncc(-c3ccc([N+](=O)[O-])cc3)[nH]2)cc1 [Compound 128]
IC50 ([1]; 25° C., Table 22): > 800 µM
IC50 [2, 6]: > 800 µM

COc1cccc(CCNc2ncc(-c3ccc([N+](=O)[O-])cc3)[nH]2)c1 [Compound 129]
IC50 ([1]; 25° C., Table 22): 3.7 µM
IC50 [2, 6]: 19.1 µM
IC50 ([2]; S. Typhimurium ATCC 14028, 25° C., read-out: IC50 for biofilm inhibition (25° C.)): 15 µM
